Among the data in US7345070B2, “Peroxisome proliferator activated receptor agonists” (Eli Lilly and Company, priority 2000, dated 2008) are inhibition in vivo and change in vivo values, retold here.

One test concerns db/db mice. The experiment in a line: Evaluation of glucose levels in db/db mice. Format: in vivo. As to conditions: Mus musculus, 168 h, 30 mg/kg oral gavage daily for 7 days, 100% = glucose not different from lean values, read-out: Glucose Normalisation. The method, then: Five week old male diabetic (db/db) mice [C57BlKs/j-m+/+ Lepr(db), Jackson Laboratory, Bar Harbor, Me.] or lean littermates (db+) were housed 6 per cage (10″×20″×8″ with aspen chip bedding) with food (Purina 5015) and water available at all times. After an acclimation period of 2 weeks, animals were individually identified by ear notches, weighed, and bled via the tail vein for determination of initial glucose levels. Blood was collected (100 μl) from unfasted animals by wrapping each mouse in a towel, cutting the tip of the tail with a scalpel, and milking blood from the tail into a heparinized capillary tube (Fisher) balanced on the edge of the bench. Sample was discharged into a heparinized microtainer with gel separator (VWR) and retained on ice. Plasma was obtained after centrifugation at 4° C. and glucose measured immediately. Remaining plasma was frozen until the completion of the experiment, when glucose and triglycerides were assayed in all samples. Animals were grouped based on initial glucose levels and body weights. Beginning the following morning, mice were dosed daily by oral gavage for 7 days using a 20 gauge, 1½″ curved disposable feeding needle. Treatments were test compounds (30 mg/kg), a positive control agent (30 mg/kg) or vehicle [1% carboxymethylcellulose (w/v)/0.25% Tween80 (w/v); 0.3 ml/mouse]. On day 7, mice were weighed and bled (tail vein) 3 hours after dosing. Twenty-four hours after the 7th dose (i.e., day 8), animals were bled again (tail vein). Samples obtained from conscious animals on days 0, 7 and 8 were assayed for glucose. After the 24 hour bleed, animals were weighed and dosed for the final time. Three hours after dosing on day 8, animals were anesthetized by inhalation of isoflurane and blood obtained via cardiac puncture (0.5-0.7 ml). Whole blood was transferred to serum separator tubes, chilled on ice and permitted to clot. Serum was obtained after centrifugation at 4° C. and frozen until analysis for compound levels. After sacrifice by cervical dislocation, the liver, heart and epididymal fat pads were excised and weighed.
The animals dosed with vehicle had average triglycerides values of 170-230 mg/dl, which were reduced by the positive PPARγ control (70-120 mg/dl with a mean reduction of 50%). Male db/db mice were hyperglycemic (average glucose of 680-730 mg/dl on the 7th day of treatment), while lean animals had average glucose levels between 190-230 mg/dl.
Glucose was measured […] using commercially purchased reagents (Sigma #315-500). According to the manufacturers, the procedures were modified from published work (McGowan, M. W., Artiss, J. D., Strandbergh, D. R. & Zak, B. Clin Chem, 20:470-5 (1974) and Keston, A. Specific colorimetric enzymatic analytical reagents for glucose. Abstract of papers 129th Meeting ACS, 31C (1956).); and depend on the release of a mole of hydrogen peroxide for each mole of analyte, coupled with a color reaction first described by Trinder (Trinder, P. Determination of glucose in blood using glucose oxidase with an alternative oxygen acceptor. Ann Clin Biochem, 6:24 (1969)). The absorbance of the dye produced is linearly related to the analyte in the sample. The assays were further modified in our laboratory for use in a 96 well format. Standards (Sigma #339-11, Sigma #16-11, and Sigma #CC0534 for glucose, triglycerides and total cholesterol, respectively), quality control plasma (Sigma # A2034), and samples (2 or 5 μl/well) were measured in duplicate using 200 μl of reagent. An additional aliquot of sample, pipetted to a third well and diluted in 200 μl water, provided a blank for each specimen. Plates were incubated at room temperature (18, 15, and 10 minutes for glucose, triglycerides and total cholesterol, respectively) on a plate shaker (DPC Micormix 5) and absorbance read at 500 nm (glucose and total cholesterol) or 540 nm (triglycerides) on a plate reader (Wallac Victor 1420). […]

A further test has as its system HuapoAI transgenic mice. As to the kind of experiment: Evaluation of triglyceride and cholesterol level in HuapoAI transgenic mice. Format: in vivo. As to conditions: Mus musculus, 168 h, human apoAI transgenic mice, 30 mg/kg oral gavage daily for 7 days; for change in vivo at 30 mg/kg: FPLC area under the curve, over mice receiving vehicle, read-out: % HDLc Increase; for inhibition in vivo at 30 mg/kg: serum 3 h after dosing, read-out: Reduction in Triglyceride Serum Level. The method, then:
After an acclimation period of 2 weeks, animals were individually identified by ear notches, weighed, and assigned to groups based on body weight. Beginning the following morning, mice were dosed daily by oral gavage for 7 days using a 20 gauge, 1½″ curved disposable feeding needle (Popper & Sons). […] Prior to termination on day 7, mice were weighed and dosed. Three hours after dosing, animals were anesthetized by inhalation of isoflurane (2-4%; Abbott Laboratories, Chicago, Ill.) and blood obtained via cardiac puncture (0.7-1.0 ml). Whole blood was transferred to serum separator tubes (Vacutainer SST), chilled on ice, and permitted to clot. Serum was obtained after centrifugation at 4° C. and frozen until analysis for triglycerides, total cholesterol, compound levels, and serum lipoprotein profile by fast protein liquid chromatography (FPLC) coupled to an inline detection system. After sacrifice by cervical dislocation, the liver, heart and epididymal fat pads were excised and weighed.
The absorbance of the dye produced is linearly related to the analyte in the sample. The assays were further modified in our laboratory for use in a 96 well format. […] An additional aliquot of sample, pipetted to a third well and diluted in 200 μl water, provided a blank for each specimen. […] Sample absorbances were compared to a standard curve (100-800, 10-500, and 100-400 mg/dl for glucose, triglycerides and total cholesterol, respectively). […] All samples from an experiment were assayed at the same time to minimize inter-assay variability.
Serum lipoproteins were separated and cholesterol quantitated with an in-line detection system. Sample was applied to a Superose® 6 HR 10/30 size exclusion column (Amersham Pharmacia Biotech) and eluted with phosphate buffered saline-EDTA at 0.5 ml/min. […] The change in voltage corresponding to change in cholesterol concentration was plotted vs time and the area under the curve corresponding to the elution of VLDL, LDL and HDL was calculated using Perkin Elmer Turbochrome software.

Take `Cc1oc(-c2cccc(Br)c2)nc1CCOc1ccc(CC(C)(Oc2ccccc2)C(=O)O)cc1` (centres unmarked) [Example 8, 3-(4-{2-[2-(3-Bromophenyl)-5-methyloxazol-4-yl]ethoxy}phenyl)-2-methyl-2-phenoxypropionic acid]: the inhibition in vivo at 30 mg/kg with db/db mice is 97%. For the same compound, the change in vivo at 30 mg/kg in the test with HuapoAI transgenic mice came to 34%.

As to `Cc1oc(-c2cccs2)nc1CCOc1ccc(CC(C)(Oc2ccc(F)cc2)C(=O)O)cc1` (centres unmarked) [Example 64, 2-(4-Fluoro-phenoxy)-2-methyl-3-{4-[2-(5-methyl-2-thiophen-2-yl-oxazol-4-yl)-ethoxy]-phenyl}-propionic acid], in the test on db/db mice, the inhibition in vivo at 30 mg/kg came out at 97%. In the test with HuapoAI transgenic mice, the change in vivo at 30 mg/kg amounted to 66% and the inhibition in vivo at 30 mg/kg came to 43%.

`Cc1oc(C2CCCCC2)nc1CCOc1ccc(CC(C)(Oc2cccc(F)c2)C(=O)O)cc1` (centres unmarked) [Example 23, 2-(3-Fluoro-phenoxy)-2-methyl-3-{4-[2-(5-methyl-2-cyclohexyl-oxazol-4-yl)-ethoxy]-phenyl}-propionic acid]: in the test with db/db mice, the inhibition in vivo at 30 mg/kg worked out at 97%. In the test with HuapoAI transgenic mice, the change in vivo at 30 mg/kg turned out to be 54% and the inhibition in vivo at 30 mg/kg came to 52.5%.

For `Cc1oc(-c2ccccc2)nc1CCOc1ccc(CC(C)(Oc2ccc(Cl)cc2)C(=O)O)cc1` (centres unmarked) [Example 29, 2-(4-Chloro-phenoxy)-2-methyl-3-{4-[2-(5-methyl-2-phenyl-oxazol-4-yl)-ethoxy]-phenyl}-propionic acid], in the test on db/db mice, the inhibition in vivo at 30 mg/kg turned out to be 86%. Further, in the test with HuapoAI transgenic mice, the change in vivo at 30 mg/kg worked out at 78%.

Consider `Cc1oc(C2CCCCC2)nc1CCOc1ccc(CC(C)(Oc2ccc(OC(F)(F)F)cc2)C(=O)O)cc1` (centres unmarked) [Example 44, 3-{4-[2-(2-Cyclohexyl-5-methyl-oxazol-4-yl)-ethoxy]-phenyl}-2-methyl-2-(4-trifluoromethoxy-phenoxy)-propionic acid], for which the inhibition in vivo at 30 mg/kg with db/db mice came to 83%. The change in vivo at 30 mg/kg with HuapoAI transgenic mice came out at 151%.

`Cc1oc(C2(C)CCCCC2)nc1CCOc1ccc(C[C@](C)(Oc2ccc(F)cc2)C(=O)O)cc1` [Example 67, (S)-2-(4-Fluoro-phenoxy)-2-methyl-3-(4-{2-[5-methyl-2-(1-methyl-cyclohexyl)-oxazol-4-yl]-ethoxy}-phenyl)-propionic acid]: in the test on db/db mice, the inhibition in vivo at 30 mg/kg turned out to be 96%. In addition, in the test with HuapoAI transgenic mice, the change in vivo at 30 mg/kg turned out to be 76% and the inhibition in vivo at 30 mg/kg was found to be 67.8%.

In the case of `Cc1oc(-c2ccccc2)nc1CCCc1ccc(CC(C)(Oc2ccccc2)C(=O)O)s1` (centres unmarked) [Example 91, 2-Methyl-3-{5-[3-(5-methyl-2-phenyl-oxazol-4-yl)-propyl]-thiophen-2-yl}-2-phenoxy-propionic acid], the inhibition in vivo at 30 mg/kg in the test on db/db mice was 71%. Also, in the test on HuapoAI transgenic mice, the change in vivo at 30 mg/kg amounted to 46%.

For `Cc1oc(CCc2ccccc2)nc1CCOc1ccc(C[C@](C)(Oc2ccccc2)C(=O)O)cc1` [Example 86, (S)-2-Methyl-3-{4-[2-(5-methyl-2-phenethyl-oxazol-4-yl)-ethoxy]-phenyl}-2-phenoxy-propionic acid], the values for the inhibition in vivo at 30 mg/kg in the test on db/db mice and in the test with HuapoAI transgenic mice were 92% and 30.1%, respectively. Further, in the test on HuapoAI transgenic mice, the change in vivo at 30 mg/kg is 36%.

Consider `Cc1oc(C2CCCCC2)nc1CCOc1ccc(CC(C)(Oc2ccc(C3CCCCC3)cc2)C(=O)O)cc1` (centres unmarked) [Example 34, 3-{4-[2-(2-Cyclohexyl-5-methyl-oxazol-4-yl)-ethoxy]-phenyl}-2-(4-cyclohexyl-phenoxy)-2-methyl-propionic acid], for which the inhibition in vivo at 30 mg/kg in the test with db/db mice was found to be 80%. For the same compound, in the test with HuapoAI transgenic mice, the change in vivo at 30 mg/kg amounted to 95% and the inhibition in vivo at 30 mg/kg amounted to 57.1%.

As for `Cc1oc(C2CCCCC2)nc1CCOc1ccc(CC(C)(Oc2ccc(F)c(F)c2)C(=O)O)cc1` (centres unmarked) [Example 58, 3-{4-[2-(2-Cyclohexyl-5-methyl-oxazol-4-yl)-ethoxy]-phenyl}-2-(3,4-difluoro-phenoxy)-2-methyl-propionic acid], in the test on db/db mice, the inhibition in vivo at 30 mg/kg was determined as 81%. Moreover, in the test on HuapoAI transgenic mice, the change in vivo at 30 mg/kg was 74% and the inhibition in vivo at 30 mg/kg was found to be 26.5%.

In the case of `Cc1ccc(OC(C)(Cc2ccc(OCCc3nc(-c4cccs4)oc3C)cc2)C(=O)O)cc1` (centres unmarked) [Example 40, 2-Methyl-3-{4-[2-(5-methyl-2-thiophen-2-yl-oxazol-4-yl)-ethoxy]-phenyl}-2-p-tolyloxy-propionic acid], the inhibition in vivo at 30 mg/kg with db/db mice stood at 103%. In the test on HuapoAI transgenic mice, the change in vivo at 30 mg/kg came out at 131% and the inhibition in vivo at 30 mg/kg amounted to 77.6%.

Regarding `Cc1cccc(OC(C)(Cc2ccc(OCCc3nc(C4CCCCC4)oc3C)cc2)C(=O)O)c1` (centres unmarked) [Example 62, 3-{4-[2-(2-Cyclohexyl-5-methyl-oxazol-4-yl)-ethoxy]-phenyl}-2-methyl-2-m-tolyloxy-propionic acid], the inhibition in vivo at 30 mg/kg in the test with db/db mice amounted to 79%. Also, in the test with HuapoAI transgenic mice, the change in vivo at 30 mg/kg is 72% and the inhibition in vivo at 30 mg/kg is 2.5%.

With `Cc1oc(C2CCCCC2)nc1CCOc1ccc(CC(C)(Oc2ccc(C(C)(C)C)cc2)C(=O)O)cc1` (centres unmarked) [Example 18, 2-Methyl-3-(4-{2-[5-methyl-2-cyclohexylyl-oxazol-4-yl]-ethoxy}-phenyl)-2-(4-tert-butylphenoxy)-propionic acid], the inhibition in vivo at 30 mg/kg in the test with db/db mice was found to be 110%. Further, in the test with HuapoAI transgenic mice, the change in vivo at 30 mg/kg was determined as 141% and the inhibition in vivo at 30 mg/kg was determined as 69%.

With `COc1cccc(OC(C)(Cc2ccc(OCCc3nc(C4CCCCC4)oc3C)cc2)C(=O)O)c1` (centres unmarked) [Example 76, 3-{4-[2-(2-Cyclohexyl-5-methyl-oxazol-4-yl)-ethoxy]-phenyl}-2-(3-methoxy-phenoxy)-2-methyl-propionic acid], the inhibition in vivo at 30 mg/kg in the test on db/db mice worked out at 97%. For the same compound, in the test with HuapoAI transgenic mice, the change in vivo at 30 mg/kg stood at 26% and the inhibition in vivo at 30 mg/kg stood at 27.1%.

`Cc1oc(-c2cccs2)nc1CCOc1ccc(CC(C)(Oc2ccccc2F)C(=O)O)cc1` (centres unmarked) [Example 27, 2-(2-Fluoro-phenoxy)-2-methyl-3-{4-[2-(5-methyl-2-thiophen-2-yl-oxazol-4-yl)-ethoxy]-phenyl}-propionic acid]: the inhibition in vivo at 30 mg/kg in the test on db/db mice was determined as 86%. Also, in the test with HuapoAI transgenic mice, the change in vivo at 30 mg/kg came to 49% and the inhibition in vivo at 30 mg/kg amounted to 36.8%.
